# Patent publication US10952992B2, “Methods of treating intraocular pressure with activators of Tie-2” (Aerpio Pharmaceuticals, Inc., priority 2015, dated 2021)
# Where a name gives a salt, the structure may show the parent alone.
# System: eye
# Assay: Example 3 ophthalmic examination, modified McDonald-Shadduck scoring (tolerability)
# Type: in vivo, New Zealand White rabbits
# Procedure: Prior to placement on study, each animal underwent an ophthalmic examination (slitlamp biomicroscopy and indirect ophthalmoscopy). Ocular findings were scored according to a modified McDonald-Shadduck Scoring System and recorded on a standardized data sheet. The acceptance criteria for placement on study were scores of “0” for all variables.
# Ophthalmic examination (slit-lamp biomicroscopy only) was performed at baseline (prior to the start of dosing) and on Days 1, 4, and 8. Ocular findings were scored according to a modified McDonald-Shadduck Scoring System. A slit lamp was used to observe conjunctival discharge, […], […], the cornea, the surface area of cornea involvement, pannus, pupillary response, aqueous flare, cellular flare, iris involvement, and the lens. An indirect ophthalmoscope was used to observe the vitreous, vitral hemorrhage, retinal detachment, retinal hemorrhage, and choroidal/retinal inflammation. Animals were prepared for observation by using a solution (atropine, tropicaminde, or phenylephrine) to dilate the pupils.
# Conjunctival discharge was defined as a whitish gray precipitate from the eye. Scoring was as follows. • 0=Normal, no discharge. • 1=Discharge above normal and present on the inner portion of the eye but not on the lids or hairs of the eyelids. • 2=Discharge is abundant, easily observed and has collected on the lids and hairs of the eyelids. • 3=Discharge has been flowing over the eyelids so as to wet the hairs substantially on the skin around the eye.
# Conjunctival congestion causes the blood vessels of the eye to become enlarged. Scoring was as follows. • 0=Normal, may appear blanched to reddish pink without perilimbal injection (except at the 12:00 and 6:00 positions) with vessels of the palpebral and bulbar conjunctiva easily observed. • 1=A flushed, reddish color predominantly confined to the palpebral conjunctiva with some perilimbal injection but primarily confined to the lower and upper parts of the eye from the 4:00 to the 7:00 and 11:00 to 1:00 positions. • 2=Bright red color of the palpebral conjunctiva with accompanying perilimbal injection covering at least 75% of the circumference of the perilimbal region. • 3=Dark, beefy red color with congestion of both the bulbar and palpebral conjunctiva along with pronounced perilimbal injection and the presence of petechial on the conjunctiva. The petechial generally predominates along the nictitating membrane and upper palprebal conjunctiva.
# Conjunctival swelling, defined as swelling of the conjunctiva, was scored as follows. • 0=Normal or no swelling of the conjunctival tissue. • 1=Swelling above normal without eversion of the eyelids (easily discerned by noting upper and lower eyelids are positioned as in the normal eye); swelling generally starts in the lower cul-de-sac near the inner canthus. • 2=Swelling with misalignment of the normal approximation of the lower and upper eyelids; primarily confined to the upper eyelid so that in the initial stages, the misapproximation of the eyelids begins by partial eversion of the upper eyelid. In this state the swelling is confined generally to the upper eyelid with some swelling in the lower cul-de-sac. • 3=Swelling definite with partial eversion of the upper and lower eyelids essentially equivalent. […] It is difficult to retract the lids and observe the perilimbal region.
# Iris involvement was observed by checking the iris for hyperemia of the blood vessels. Scoring was as follows. • 0=Normal iris without any hyperemia of the blood vessels. • 1=Some loss of transparency. Only the epithelium and/or the anterior half of the stroma are involved. The underlying structures are clearly visible although some cloudiness may be readily apparent. • 2=Involvement of the entire thickness of the stroma. […]
# [1] = Day 1, Group 2 (0.45 mg/eye topical BID), N=5
smiles,measurement,setting,value
COC(=O)N[C@@H](Cc1ccccc1)C(=O)N[C@@H](Cc1ccc(NS(=O)(=O)O)cc1)c1csc(-c2cccs2)n1 [Compound 1 sodium salt],animals with mild conjunctival congestion (scores=1),[1],five
same,animals with mild conjunctival swelling,[1],one
same,animals with mild conjunctival congestion (scores=1),"Day 1, Group 3 (1.2 mg/eye topical BID), N=5",two
same,animals with mild conjunctival congestion (scores=1),"Day 1, Group 4 (1.2 mg/eye topical QD), N=5",one
same,animals with mild conjunctival congestion (scores=1),"Day 1, Group 5 (10 mg/kg SC BID), N=5",three
same,animals with mild conjunctival congestion (scores=1),"Day 4, Group 2 (0.45 mg/eye topical BID), N=5",two
same,animals with mild conjunctival congestion (scores=1),"Day 4, Group 3 (1.2 mg/eye topical BID), N=5",two
same,animals with mild conjunctival congestion (scores=1),"Day 4, Group 4 (1.2 mg/eye topical QD), N=5",one
same,animals with mild conjunctival congestion (scores=1),"Day 4, Group 5 (10 mg/kg SC BID), N=5",none
same,ocular anomalies,"Day 8, all groups",No ocular anomalies
same,relation of mild conjunctival congestion to test article,Example 3,unrelated to the test article
